The IC50 is the concentration at which inhibition is half-maximal.

Read-outs that look alike come from different tables or passages of the source.

Data on two compounds can be found in patent publication US11072596B2, “Poly(ADP-ribose) polymerase inhibitor, preparation method and use” (SELECTION BIOSCIENCE LLC, priority 2017, dated 2021).

Data set [1] is described as follows: Liver microsomal stability in vitro, rat. The settings on record: pH 7.4; rat liver microsomes 0.5 mg protein/mL, 1 μM test compound, 37° C.; read-out: Rat T1/2. Format: in vitro ADME. The procedure:
(§1) Evaluation of in vitro liver microsomal stability of the compound of the present disclosure was tested by the following method:
(§2) Buffer: 100 mM potassium phosphate buffer, pH 7.4; […] MgCl2.
(§3) Liver microsomes: human liver microsomes, Corning Cat No. 452117; Rat liver microsomes, Xenotech Cat No. R1000; Mouse liver microsomes, Xenotech Cat No. M1000; Dog liver microsomes, Xenotech Cat No. D1000; Liver microsomes of cynomolgus monkey, Corning Cat No. 452413, the final concentration was 0.5 mg protein/mL.
(§4) 1. Intermediate solution: 5 μL of compound or control in stock solution (10 mM) was diluted with 495 μL of methanol (concentration: 100 μM, 99% MeOH).
(§5) 2. Operating solution: the intermediate solution was diluted […] with 450 μL 100 mM potassium phosphate buffer (concentration: 10 μM, 9.9% MeOH).
(§6) 1. 10 μL of compound or control solution per well was added to all plates (T0, T5, T10, T20, T30, T60, NCF60) except matrix blank.
(§7) 2. Microsome solution was distributed to 96-well plates according to platemap for standby, 680 μL per well, and the mixture of microsome solution and the compound was incubated at 37° C. for about 10 minutes.
4. […]
(§8) 10. Data analysis: The peak area of the corresponding compound and internal standard was detected by LC-MS/MS, and the T1/2 of the compound was calculated by the following formula: […]
(Microsomes from liver hold many membrane-bound enzymes, among them those of drug oxidation.)

Data set [2] can be described thus: Liver microsomal stability in vitro, mouse. It is filed as in vitro ADME. The following applies: pH 7.4; mouse liver microsomes 0.5 mg protein/mL, 1 μM test compound, 37° C.; read-out: Mouse T1/2. How it is done: as §1, §2, §3, §4, §5, §6, §7
4. […]
as §8

The next data set concerns the target T1, PARP1 (Homo sapiens, UniProt P09874).
T1 construct: purchased BPS 80580
Put plainly: PARP1 Colorimetric Assay (PARP-1 kinase inhibitory activity). It is filed as biochemical. The settings on record: PARP1 colorimetric assay kit, 1 hour at room temperature; read-out: PARP1 (in vitro enzymatic inhibitory activity, IC50). The procedure:
PARP1 kinase activity was tested by the following method:
PARP1 Colorimetric Assay Kit (BPS, Cat #80580)
1. PARP1 Colorimetric Assay
2) 50 μL of diluted coating solution was added to each well for overnight at 4° C.
4) 200 μL of blocking buffer was added to each well and incubated at room temperature for 90 minutes.
1) A reaction solution was prepared in a ratio of […] 2.5 μL 10×PARP buffer+2.5 μL 10×PARP Assay mixture+5 μL Activated DNA+15 μL deionized water per well, and 25 μL of the reaction solution was added to each well (see Table 1).
4) 100 μL of colorimetric HRP substrate was added to each well and reacted at room temperature for 20 minutes.
5) 100 μL of 2 M H2SO4 was added to each well and OD 450 nm was read on a microplate reader.

The next data set has as its target T2, CYP3A4 (Homo sapiens, UniProt P08684).
T2 construct: from tissue; host or cells: human liver microsomes (HLM)
Put plainly: Inhibition of human liver microsomal CYP450 enzymes, CYP3A4. The following applies: human liver microsomes, Reference = ketoconazole. Format: in vitro ADME.

T2 sequence (P08684 whole entry): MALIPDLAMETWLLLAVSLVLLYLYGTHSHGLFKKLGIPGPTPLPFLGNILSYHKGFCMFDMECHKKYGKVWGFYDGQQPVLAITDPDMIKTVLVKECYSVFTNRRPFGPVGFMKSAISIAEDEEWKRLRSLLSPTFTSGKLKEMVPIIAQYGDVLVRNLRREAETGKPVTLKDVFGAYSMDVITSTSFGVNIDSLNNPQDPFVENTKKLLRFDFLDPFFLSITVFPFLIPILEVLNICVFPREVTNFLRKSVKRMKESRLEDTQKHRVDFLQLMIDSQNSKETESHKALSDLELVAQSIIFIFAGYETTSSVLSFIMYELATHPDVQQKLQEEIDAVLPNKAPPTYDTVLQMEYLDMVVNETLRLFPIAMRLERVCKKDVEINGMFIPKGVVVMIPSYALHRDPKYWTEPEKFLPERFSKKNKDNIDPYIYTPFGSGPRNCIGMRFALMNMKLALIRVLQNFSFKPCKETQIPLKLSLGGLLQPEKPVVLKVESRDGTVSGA
T1 sequence (P09874 whole entry): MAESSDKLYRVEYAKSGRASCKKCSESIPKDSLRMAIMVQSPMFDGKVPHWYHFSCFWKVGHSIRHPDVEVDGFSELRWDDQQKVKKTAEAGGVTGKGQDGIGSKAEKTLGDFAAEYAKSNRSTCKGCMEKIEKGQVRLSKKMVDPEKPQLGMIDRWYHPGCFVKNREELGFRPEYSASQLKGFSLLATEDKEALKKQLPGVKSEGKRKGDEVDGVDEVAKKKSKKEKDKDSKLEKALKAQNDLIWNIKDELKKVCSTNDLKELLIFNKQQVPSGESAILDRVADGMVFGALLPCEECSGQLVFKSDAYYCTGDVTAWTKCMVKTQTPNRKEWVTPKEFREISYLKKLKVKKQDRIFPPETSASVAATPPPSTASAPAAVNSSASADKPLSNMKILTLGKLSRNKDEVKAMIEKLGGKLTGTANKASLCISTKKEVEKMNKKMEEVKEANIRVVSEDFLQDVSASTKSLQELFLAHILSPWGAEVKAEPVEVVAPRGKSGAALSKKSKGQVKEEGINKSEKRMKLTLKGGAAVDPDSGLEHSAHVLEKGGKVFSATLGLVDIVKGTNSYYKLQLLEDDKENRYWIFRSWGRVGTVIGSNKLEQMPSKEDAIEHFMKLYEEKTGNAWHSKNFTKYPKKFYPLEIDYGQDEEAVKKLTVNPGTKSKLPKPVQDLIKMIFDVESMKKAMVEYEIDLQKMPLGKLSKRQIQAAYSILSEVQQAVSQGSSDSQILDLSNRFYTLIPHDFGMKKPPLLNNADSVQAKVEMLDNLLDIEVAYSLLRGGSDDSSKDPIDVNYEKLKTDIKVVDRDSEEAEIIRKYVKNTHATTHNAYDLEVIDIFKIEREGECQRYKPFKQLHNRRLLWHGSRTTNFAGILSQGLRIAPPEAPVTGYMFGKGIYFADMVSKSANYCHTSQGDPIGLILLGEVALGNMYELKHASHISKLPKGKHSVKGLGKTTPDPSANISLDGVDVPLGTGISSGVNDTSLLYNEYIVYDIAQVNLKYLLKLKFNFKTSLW
Protocol for CYP3A4: The inhibitory effects of the compound of the present disclosure on the CYP450 enzymes of six human subtypes were determined by the following experimental method:
Substrate concentration: CYP1A2: Phenacetin at 30 μM; CYP2C9: Diclofenac at 10 μM; CYP2C19: S-Mephenytoin at 35 μM; CYP3A4: Midazolam at 5 μM and Testosterone at 80 μM; CYP2D6: Bufuralol at 10 μM.
0.2 mg/mL of HLM was added to the test wells, 400 μL per well, and then the gradient diluted 400× test compound was added to the corresponding wells.
0.2 mg/mL of HLM was added to the test wells, 200 μL per well, and then the gradient-diluted reference inhibitor was added to the corresponding wells. Steps 6 and 7 needed to be performed on ice.
30 μL of test compound and reference compound were mixed in 0.2 mg/mL of HLM solution (see steps 6 and 7).
15 μL of 4× substrate solution (see step 4) was added.
Preheated 8 mM of NADPH solution was added to the 96-well test plate (see step 3) to initiate the reaction, 15 μL per well.
The test plate was incubated at 37° C.: 3A4 for 5 minutes, each of 1A2, 2C9 and 2D6 for 10 minutes, and 2C19 for 45 minutes.
ACN containing internal reference was added to stop the reaction, 120 μL per well.
50 μL of supernatant from each well was transferred to a 96-well sample plate containing 50 μL of ultrapure water (Millipore, ZMQS50F01) for LC/MS analysis. […]

As for `NC(=O)c1cccc2cn(-c3ccc([C@@H]4CCCNC4)cc3)nc12` [Niraparib, reference compound], the values for the half-life at 1 μM in data set [1] and in data set [2] were 1.76 h and 1.83 h, respectively.
`NC(=O)c1cccc2cn(-c3ccc([C@]4(F)CCCNC4)cc3)nc12` (single isomer, unassigned) [Example 23, (R or S)-2-(4-(3-fluoropiperidin-3-yl)phenyl)-2H-indazole-7-carboxamide]: the IC50 was < 0.1 µM on PARP1; > 10 µM on CYP3A4 (substrate Midazolam 5 μM, read-out: IC50 3A4 (Midazolam)); > 10 µM at CYP3A4 (substrate Testosterone 80 μM, read-out: IC50 3A4 (Testosterone)). Further, the half-life at 1 μM in data set [1] was found to be 1.07 h; in data set [2], 1.02 h.
